Measurements taken from patent US8183243B2, “Melanocortin receptor agonists” (LG Life Sciences Ltd., priority 2008, dated 2012).
Read-outs that look alike come from different tables or passages of the source.

Target: T1, MC4R (Homo sapiens, UniProt P32245)
T1 construct: expressed in transfected cells; host or cells: HEK (Human Embryonic Kidney) permanent expression cell line HEK MC4R-Luc, co-expressing CRE-luciferase
Experiment: MCR agonistic activity (luciferase assay / cAMP accumulation assay) on MC4R
Assay type: cell-based
Settings: HEK cell lines expressing MC4R, not said which
Method: Physiological activity of the compounds of the present invention was assessed by measuring agonistic activity as well as binding activity for melanocortin receptors (MCR) according to methods A and B explained as follows.
As one of the methods to measure MCR agonistic activity of the compound according to the present invention, the expression level of a marker gene (for example, luciferase) which increases proportionally according to the increase of cAMP content in the cell, was measured.
First, permanent expression HEK (Human Embryonic Kidney) cell lines (HEK MC1R-Luc, MC3R-Luc, MC4R-Luc or MC5R-Luc) expressing the MCR gene of each subtype together with luciferase gene (CRE-LUC) under the control of CRE (cAMP Response Element) were constructed. The above cell lines were incubated in an incubator with 6% CO2 atmosphere at 37° C. using selection medium, DMEM(Dulbecco's Modified Eagles Medium) containing 10% heat-inactivated fetal bovine serum (Gibco/BRL), 100 unit/ml, penicillin (Gibco/BRL), 100 unit/ml streptomycin (Gibco/BRL), and 200 μg/ml geneticin (G418) (Gibco/BRL). When the cell covered 70% of total surface of the culture dish with 100 mm diameter, the culture dish was rinsed one time with 10 ml Phosphate Buffered Saline(PBS) free of Ca^++ and Mg^++, and then 3 ml PBS solution containing 0.05% trypsin and 0.53 mM EDTA was added thereto. After the trypsin/EDTA solution was removed, the cell lines were incubated in an thermostatic incubator for 1 minute at 37° C., and resuspended in 10 ml selection medium and centrifuged for 5 minutes at 1500 rpm. The supernatant was discarded and the settled cells were resuspended in 5 ml selection medium free of Phenol Red. The resulting cell-suspension was plated onto each well of 96-well culture plates for Luminometer(Costar) with a concentration of 5×10^4 cell in 100 μl culture medium for each well and incubated in the incubator with 6% CO2 atmosphere at 37° C. for 18 hours. With MCR agonists (Example compounds) diluted stepwise using the above culture medium, the cells were treated under the condition of the final DMSO concentration not exceeding 1%, and incubated for 5 hours in the atmosphere of 6% CO2 at 37° C. Then, 50 μl Bright-Glo (Promega) was added to each well. After allowing the treated cells to be at room temperature for 15 minutes, luminescence was measured for each well by using luminometer (Victor). The level of luminescence induced by the stepwise-diluted agonist was converted to relative % value to those by the treatment of 10 nM NDP-MSH. The EC50 indicates the concentration of each agonist for inducing 50% of maximal luminescence by each agonist and this value was measured by a statistical software (Prizm).
B. cAMP Accumulation Assay
As another method to measure MCR agonistic activity of the compound according to the present invention, an increase of cAMP amount in the cell was measured.
First, permanent expression HEK (Human Embryonic Kidney) cell lines (HEK MC1R-Luc, MC3R-Luc, MC4R-Luc or MCSR-Luc) expressing the MCR gene of each subtype were plated onto each well of 24-well culture plates for Luminometer(Costar) with a concentration of 2×10^5 cell in 1 ml culture medium for each well, and then incubated in an incubator with 6% CO2 atmosphere at 37° C. for 24 hours. The medium was removed from each well followed by rinsing with 0.5 ml cold DMEM one time. With MCR agonists (Example compounds) diluted stepwise using 200 μl DMEM including 500 μM IBMX (isobutylmethylxanthine), the cells were treated under the condition of the final DMSO concentration not exceeding 1%, and incubated for 30 minutes in the atmosphere of 6% CO2 at 37° C. Then, the cAMP amount in each cell was measured using Amersham cAMP assay Kit (TRK432).
More specifically, 14.4 μl of 6M PCA (60%) was added to each well, and allowed to be in ice for 10 minutes, and 200 μl sample was taken from each well and transferred to microcentrifuge tube. […]

[1] = method A (CRE-luciferase) or B (cAMP accumulation), read-out: EC50 value, agonistic activity to MC4R (range per group of Examples)
[2] = specific activities of representative compounds, method A or B, read-out: EC50

T1 sequence (P32245 whole entry, species assumed): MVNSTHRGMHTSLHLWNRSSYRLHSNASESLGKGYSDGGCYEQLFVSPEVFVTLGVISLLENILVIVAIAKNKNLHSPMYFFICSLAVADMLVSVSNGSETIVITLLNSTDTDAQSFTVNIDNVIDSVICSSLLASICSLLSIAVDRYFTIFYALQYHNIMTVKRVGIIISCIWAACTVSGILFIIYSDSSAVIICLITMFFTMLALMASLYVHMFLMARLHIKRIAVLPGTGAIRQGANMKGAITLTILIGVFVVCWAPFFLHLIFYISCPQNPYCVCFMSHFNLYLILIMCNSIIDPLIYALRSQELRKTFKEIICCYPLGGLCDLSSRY

EC50 [1] | EC50 [2] | SMILES
10 to 100 nM |  | CN1CCN(C(=O)[C@@H]2C[C@H](N(C(=O)[C@@H]3CCCO3)C3CCC(F)(F)CC3)CN2C(=O)[C@@H]2CN(C(C)(C)C)C[C@H]2c2ccc(Cl)cc2)CC1 [Example 31, (2S)-N-{(3S,5S)-1-{[(3S,4R)-1-tert-butyl-4-(4-chlorophenyl)pyrrolidin-3-yl]carbonyl}-5-[(4-methylpiperazin-1-yl)carbonyl]pyrrolidin-3-yl}-N-(4,4-difluorocyclohexyl)tetrahydrofuran-2-carboxamide]
0.1 to 10 nM | 4 nM | CN1CCN(C(=O)[C@H]2C[C@H](N(C(=O)[C@@H]3CCCO3)C3CCC(C)(C)CC3)CN2C(=O)[C@@H]2CN(C(C)(C)C)C[C@H]2c2ccc(F)cc2F)CC1 [Example 32, (2S)-N-{(3S,5R)-1-{[(3S,4R)-1-tert-butyl-4-(2,4-difluorophenyl)pyrrolidin-3-yl]carbonyl}-5-[(4-methylpiperazin-1-yl)carbonyl]pyrrolidin-3-yl}-N-(4,4-dimethylcyclohexyl)tetrahydrofuran-2-carboxamide]
10 to 100 nM |  | CN1CCN(C(=O)[C@H]2C[C@H](N(C(=O)C(C)(C)C)[C@H]3CC[C@@H](C)CC3)CN2C(=O)[C@@H]2CN(C(C)(C)C)C[C@H]2c2ccc(F)cc2F)CC1 [Example 33, N-{(3S,5R)-1-{[(3S,4R)-1-tert-butyl-4-(2,4-difluorophenyl)pyrrolidin-3-yl]carbonyl}-5-[(4-methylpiperazin-1-yl)carbonyl]pyrrolidin-3-yl}-2,2-dimethyl-N-(cis-4-methylcyclohexyl)propanamide]
0.1 to 10 nM |  | CN1CCN(C(=O)[C@H]2C[C@H](N(C(=O)C(C)(C)CO)[C@H]3CC[C@@H](C)CC3)CN2C(=O)[C@@H]2CN(C(C)(C)C)C[C@H]2c2ccc(Cl)cc2)CC1 [Example 36, N-{(3S,5R)-1-{[(3S,4R)-1-tert-butyl-4-(4-chlorophenyl)pyrrolidin-3-yl]carbonyl}-5-[(4-methylpiperazin-1-yl)carbonyl]pyrrolidin-3-yl}-3-hydroxy-2,2-dimethyl-N-(cis-4-methylcyclohexyl)propanamide]
0.1 to 10 nM |  | CC(=O)N([C@H]1C[C@H](C(=O)N2CCN(C)CC2)N(C(=O)[C@@H]2CN(C(C)(C)C)C[C@H]2c2ccc(Cl)cc2)C1)[C@H]1CC[C@@H](C)CC1 [Example 37, N-{(3S,5R)-1-{[(3S,4R)-1-tert-butyl-4-(4-chlorophenyl)pyrrolidin-3-yl]carbonyl}-5-[(4-methylpiperazin-1-yl)carbonyl]pyrrolidin-3-yl}-N-(cis-4-methylcyclohexyl)acetamide]
0.1 to 10 nM |  | CC(=O)N([C@H]1C[C@H](C(=O)N2CCN(C)CC2)N(C(=O)[C@@H]2CN(C(C)(C)C)C[C@H]2c2ccc(F)cc2F)C1)[C@H]1CC[C@@H](C)CC1 [Example 38, N-{(3S,5R)-1-{[(3S,4R)-1-tert-butyl-4-(2,4-difluorophenyl)pyrrolidin-3-yl]carbonyl}-5-[(4-methylpiperazin-1-yl)carbonyl]pyrrolidin-3-yl}-N-(cis-4-methylcyclohexyl)acetamide]
0.1 to 10 nM |  | CC(=O)N([C@H]1C[C@H](C(=O)N2CCN(C(C)C)CC2)N(C(=O)[C@@H]2CN(C(C)(C)C)C[C@H]2c2ccc(Cl)cc2)C1)[C@H]1CC[C@@H](C)CC1 [Example 39, N-{(3S,5R)-1-{[(3S,4R)-1-tert-butyl-4-(4-chlorophenyl)pyrrolidin-3-yl]carbonyl}-5-[(4-isopropylpiperazin-1-yl)carbonyl]pyrrolidin-3-yl}-N-(cis-4-methylcyclohexyl)acetamide]
0.1 to 10 nM | 3 nM | CN1CCN(C(=O)[C@@H]2C[C@H](N(C(=O)[C@@H]3CCCO3)C3CCC(C)(C)CC3)CN2C(=O)[C@@H]2CN(C3CCOCC3)C[C@H]2c2ccc(Cl)cc2)CC1 [Example 41, (2S)-N-{(3S,5S)-1-{[(3S,4R)-4-(4-chlorophenyl)-1-(tetrahydro-2H-pyran-4-yl)pyrrolidin-3-yl]carbonyl}-5-[(4-methylpiperazin-1-yl)carbonyl]pyrrolidin-3-yl}-N-(4,4-dimethylcyclohexyl)tetrahydrofuran-2-carboxamide]
10 to 100 nM |  | CN1CCN(C(=O)[C@@H]2C[C@H](N(C(=O)[C@@H]3CCCO3)C3CCC(C)(C)CC3)CN2C(=O)[C@@H]2CN(C3CC3)C[C@H]2c2ccc(Cl)cc2)CC1 [Example 42, (2S)-N-{(3S,5S)-1-{[(3S,4R)-4-(4-chlorophenyl)-1-cyclopropylpyrrolidin-3-yl]carbonyl}-5-[(4-methylpiperazin-1-yl)carbonyl]pyrrolidin-3-yl}-N-(4,4-dimethylcyclohexyl)tetrahydrofuran-2-carboxamide]
0.1 to 10 nM | 10 nM | Cc1ccc(N2C[C@@H](C(=O)N3C[C@@H](N(C(=O)[C@@H]4CCCO4)C4CCC(C)(C)CC4)C[C@H]3C(=O)N3CCN(C)CC3)[C@H](c3ccc(Cl)cc3)C2)nn1 [Example 43, (2S)-N-{(3S,5S)-1-{[(3S,4R)-4-(4-chlorophenyl)-1-(6-methylpyridazin-3-yl)pyrrolidin-3-yl]carbonyl}-5-[(4-methylpiperazin-1-yl)carbonyl]pyrrolidin-3-yl}-N-(4,4-dimethylcyclohexyl)tetrahydrofuran-2-carboxamide]
10 to 100 nM |  | CN1CCN(C(=O)[C@@H]2C[C@H](N(C(=O)[C@@H]3CCCO3)[C@H]3CC[C@@H](C)CC3)CN2C(=O)[C@@H]2CN(c3ccc(Cl)nn3)C[C@H]2c2ccc(F)cc2F)CC1 [Example 44, (2S)-N-{(3S,5S)-1-{[(3S,4R)-4-(2,4-difluorophenyl)-1-(6-chloropyridazin-3-yl)pyrrolidin-3-yl]carbonyl}-5-[(4-methylpiperazin-1-yl)carbonyl]pyrrolidin-3-yl}-N-(cis-4-methylcyclohexyl)tetrahydrofuran-2-carboxamide]
0.1 to 10 nM | 8 nM | CN1CCN(C(=O)[C@@H]2C[C@H](N(C(=O)[C@@H]3CCCO3)C3CCC(C)(C)CC3)CN2C(=O)[C@@H]2CN(c3cccnn3)C[C@H]2c2ccc(F)cc2F)CC1 [Example 45]
10 to 100 nM |  | CN1CCN(C(=O)[C@@H]2C[C@H](N(C(=O)[C@@H]3CCCO3)[C@H]3CC[C@@H](C)CC3)CN2C(=O)[C@@H]2CN(c3ccccc3)C[C@H]2c2ccc(Cl)cc2)CC1 [Example 46, (2S)-N-{(3S,5S)-1-{[(3S,4R)-4-(4-chlorophenyl)-1-phenylpyrrolidin-3-yl]carbonyl}-5-[(4-methylpiperazin-1-yl)carbonyl]pyrrolidin-3-yl}-N-(cis-4-methylcyclohexyl)tetrahydrofuran-2-carboxamide]

SMILES | EC50 [1] | EC50 [2]
CN1CCN(C(=O)[C@H]2C[C@H](N(C(=O)[C@@H]3CCCO3)C3CCC(C)(C)CC3)CN2C(=O)[C@@H]2CN(C(C)(C)C)C[C@H]2c2ccc(Cl)cc2)CC1 [Example 34, (2S)-N-{(3S,5R)-1-{[(3S,4R)-1-tert-butyl-4-(4-chlorophenyl)pyrrolidin-3-yl]carbonyl}-5-[(4-methylpiperazin-1-yl)carbonyl]pyrrolidin-3-yl}-N-(4,4-dimethylcyclohexyl)tetrahydrofuran-2-carboxamide] | 0.1 to 10 nM | 
